Source: patent US12053506B2, “Romo1-derived antimicrobial peptides and variants thereof” (priority 2019, dated 2024)
No end group written: not given here.

Assays:
[1] = tested on: Pseudomonas aeruginosa (ATCC 27853); format: cell-based; conditions: for MBC value (μg/ml) against Pseudomonas aeruginosa: ATCC 27853, 1 h; for MBC Pseudomonas aeruginosa: Tables 11-15, no unit printed
Description: (§1) Romo1 protein comprises two α-helices. The present inventors synthesized the α-helix 2 region having both hydrophilicity and hydrophobicity, and evaluated the antibacterial activity thereof using minimum bactericidal concentration (MBC) assay. The α-helix 2 region was named KU-5279 (the 52-79 amino acid region of Romo1 protein). Then, in order to identify peptides that are beneficial for human application and have excellent antibacterial activity, the present inventors synthesized several peptides comprising a sequence of contiguous amino acids starting at any amino acid selected from the 52-79 amino acid region of Romo1 protein, and comparatively evaluated the antibacterial activities of the peptides by minimum bactericidal concentration assay (See Table 1 below for information on each peptide). Evaluation of the antibacterial activity of each peptide by minimum bactericidal concentration assay was specifically performed as follows. First, each of Pseudomonas aeruginosa (ATCC 27853) and Staphylococcus aureus (ATCC 29213) was cultured in 3% (w/v) TSB (Tryptic Soy Broth) liquid medium at 37° C. and 200 rpm for 4 hours, and then further cultured under the same conditions for 3 hours to a concentration of 5×10^6 CFU/ml. Strain solutions were prepared by diluting each of the further cultured strains with SP (sodium phosphate; 10 mM sodium phosphate, 1% TSB) buffer to a final concentration of 2×10^5 CFU/ml. Then, each peptide at varying concentrations (0 μg/ml to 300 μg/ml) was dispensed into each well of a 96-well microplate, and 100 μl (1×10^5 CFU/ml) of each of the prepared strain solutions was added thereto, mixed therewith, and allowed to react with the peptide in an incubator at 37° C. for 1 hour. In addition, 30 g/L of TS (tryptic soy) and 15 g/L of agar were dissolved in distilled water and sterilized, and then 25 ml of the solution was poured onto a 100 mm round plate and solidified at room temperature for one day or more, thereby preparing a TS agar plate. 10 μl of each reaction solution of the peptide and the strain was plated on the TS agar plate at a constant size, and incubated in an incubator at 37° C. for 18 hours, and then colony formation on the plate was checked. The minimum bactericidal concentration was defined as the minimum concentration of the peptide at which no colony was formed, and the experimental results are shown in Table 1 below.

[2] = tested on: Staphylococcus aureus (ATCC 29213); format: cell-based; conditions: for MBC value (μg/ml) against Staphylococcus aureus: ATCC 29213, 1 h; for MBC Staphylococcus aureus: Tables 11-15, no unit printed
Description: as §1

[3] = tested on: methicillin-resistant Staphylococcus aureus (ATCC 33591); conditions: Tables 11-15, no unit printed
Experimental: First, each of Pseudomonas aeruginosa (ATCC 27853) and Staphylococcus aureus (ATCC 29213) was cultured in 3% (w/v) TSB (Tryptic Soy Broth) liquid medium at 37° C. and 200 rpm for 4 hours, and then further cultured under the same conditions for 3 hours to a concentration of 5×10^6 CFU/ml. Strain solutions were prepared by diluting each of the further cultured strains with SP (sodium phosphate; 10 mM sodium phosphate, 1% TSB) buffer to a final concentration of 2×10^5 CFU/ml.
Then, each peptide at varying concentrations (0 μg/ml to 300 μg/ml) was dispensed into each well of a 96-well microplate, and 100 μl (1×10^5 CFU/ml) of each of the prepared strain solutions was added thereto, mixed therewith, and allowed to react with the peptide in an incubator at 37° C. for 1 hour.
In addition, 30 g/L of TS (tryptic soy) and 15 g/L of agar were dissolved in distilled water and sterilized, and then 25 ml of the solution was poured onto a 100 mm round plate and solidified at room temperature for one day or more, thereby preparing a TS agar plate. 10 μl of each reaction solution of the peptide and the strain was plated on the TS agar plate at a constant size, and incubated in an incubator at 37° C. for 18 hours, and then colony formation on the plate was checked.
Specifically, each type of bacteria was cultured in 3% (w/v) TSB (Tryptic Soy Broth) liquid medium at 37° C. and 200 rpm for 4 hours, and then further cultured under the same conditions for 3 hours to a concentration of 5×10^6 CFU/ml. Strain solutions were prepared by diluting each of the […] of 2×10^5 CFU/ml.
Then, the KU-5878 peptide at varying concentrations (0 μg/ml to 300 μg/ml) was dispensed into each well of a 96-well microplate, and 100 μl (1×10^5 CFU/ml) of each of the prepared strain solutions was added thereto, mixed therewith, and allowed to react with the peptide in an incubator at 37° C. for 1 hour.
In addition, 10 μl of each reaction solution of the peptide and the strain was plated on the TS agar plate at a constant size, and incubated in an incubator at 37° C. for 18 hours, and then colony formation on the plate was checked.

[4] = tested on: CRPA; experiment: MBC, evaluation of antibacterial activities of KU-5878 variants; format: cell-based; conditions: Tables 11-15, no unit printed
Experimental: Variants were prepared by deleting one amino acid from the amino acid sequence of KU-5878 (SEQ ID NO: 13), and the antibacterial activities thereof were evaluated.
Variants were prepared by deleting two or more amino acids from the amino acid sequence of KU-5878 (SEQ ID NO: 13), and the antibacterial activities thereof were evaluated.
One amino acid in the amino acid sequence of KU-5878 (SEQ ID NO: 13) was substituted, and the antibacterial activities of the peptides were evaluated.
Substitutions of Q62K, S63K and T66K were sequentially added to the amino acid sequence of KU-5878-T59K, and the antibacterial activities of the peptides were evaluated.
An amino acid repeat sequence was added to the C-terminus of KU-5878, and the antibacterial activities of the peptides were evaluated. According to Table 15 below, when the R (arginine) repeat sequence or K (lysine) sequence was added to the C-terminus of KU-5878, the antibacterial activity of the peptide increased.

Row | Substance | MBC value (μg/ml) against Pseudomonas aeruginosa [1] [µg/mL] | MBC Pseudomonas aeruginosa [1] [µg/mL] | MBC value (μg/ml) against Staphylococcus aureus [2] [µg/mL] | MBC Staphylococcus aureus [2] [µg/mL] | MBC MRSA [3] [µg/mL] | MBC CRPA [4] [µg/mL]
1 | KTAMQSGGTFGTFMAIGMGIR [KU-5878-M60A] | >300 | > 300 | >300 | > 300 | > 300 | > 300
2 | KTMM-SGGTFGTFMAIGMGIR [Peptide 5878-d62Q] |  | 100 |  | 90 | 100 | 100
3 | KTMMASGGTFGTFMAIGMGIR [KU-5878-Q62A] |  | > 300 |  | > 300 | > 300 | > 300
4 | KTMMHSGGTFGTFMAIGMGIR [KU-5878-Q62H] |  | > 300 |  | > 300 | > 300 | > 300
5 | KTMMQ-GGTFGTFMAIGMGIR [Peptide 5878-d63S] |  | 200 |  | 200 | 200 | 200
6 | KTMMQAGGTFGTFMAIGMGIR [KU-5878-S63A] |  | 300 |  | 300 | > 300 | 300
7 | KTMMQHGGTFGTFMAIGMGIR [KU-5878-S63H] |  | 100 |  | 100 | 110 | 100
8 | KTMMQRGGTFGTFMAIGMGIR [KU-5878-S63R] |  | 20 |  | 15 | 25 | 20
9 | KTMMQS-GTFGTF-AIGM-IR [5878-d64G, d71M, d76G] |  | 200 |  | 200 | 200 | 200
10 | KTMMQS-GTFGTFMAIGMGIR [Peptide 5878-d64G] |  | 100 |  | 100 | 100 | 110
11 | KTMMQSGG-FGTFMAIGMGIR [Peptide 5878-d66T] |  | 90 |  | 90 | 90 | 100
12 | KTMMQSGGAFGTFMAIGMGIR [KU-5878-T66A] |  | > 300 |  | > 300 | > 300 | > 300
13 | KTMMQSGGHFGTFMAIGMGIR [KU-5878-T66H] |  | > 300 |  | > 300 | > 300 | > 300
14 | KTMMQSGGRFGTFMAIGMGIR [KU-5878-T66R] |  | 80 |  | 90 | 90 | 80
15 | KTMMQSGGSFGTFMAIGMGIR [KU-5878-T66S] |  | > 300 |  | > 300 | > 300 | > 300
16 | KTMMQSGGT-GTFMAIGMGIR [Peptide 5878-d67F] |  | 200 |  | 200 | 200 | 200
17 | KTMMQSGGTAGTFMAIGMGIR [KU-5878-F67A] | >300 | > 300 | >300 | > 300 | > 300 | > 300
18 | KTMMQSGGTF-TFMAIGMGIR [Peptide 5878-d68G] |  | 25 |  | 20 | 25 | 18
19 | KTMMQSGGTFG-FMAIGMGIR [Peptide 5878-d69T] |  | 120 |  | 120 | 140 | 140
20 | KTMMQSGGTFGAFMAIGMGIR [KU-5878-T69A] |  | 300 |  | 300 | 300 | 300
21 | KTMMQSGGTFGT-MAIGMGIR [Peptide 5878-d70F] |  | 200 |  | 200 | 200 | 200
22 | KTMMQSGGTFGTF-AIG-GIR [5878-d71M, d75M] |  | 300 |  | 250 | 300 | 300
23 | KTMMQSGGTFGTF-AIGMGIR [Peptide 5878-d71M] |  | 250 |  | 250 | 300 | 300
24 | KTMMQSGGTFGTFM-IGMGIR [Peptide 5878-d72A] |  | 150 |  | 150 | 160 | 170
25 | KTMMQSGGTFGTFMA-GMGIR [Peptide 5878-d73I] |  | > 300 |  | > 300 | > 300 | > 300
26 | KTMMQSGGTFGTFMAAGMGIR [KU-5878-I73A] | >300 | > 300 | >300 | > 300 | > 300 | > 300
